Source: US7994113B2, “βGBP, compositions comprising βGBP, and related methods and uses thereof” (priority 2007, dated 2011)
Read-outs that look alike come from different tables or passages of the source.

Key:
[1] = test system: activated T cells; details: Rabinovich et al., 1997, 1998, 1999; cited from earlier work
[2] = test system: akt mRNA; assay: Northern blot analysis of akt mRNA; assay type: cell-based; details: for akt mRNA level: 30 nM Hu-r-βGBP
[3] = test system: ERK; assay type: cell-based
[4] = test system: MCF-7 breast cancer cells; assay: Growth rate of naïve MCF-7 cells; assay type: cell-based
[5] = test system: MCF10A mammary ductal cells; assay: Growth rate and Annexin V apoptosis of naïve MCF10A cells; assay type: cell-based
[6] = test system: SW480 colon cancer cells; assay: Growth rate of SW480 colon cancer cells with Hu-r-βGBP; assay type: cell-based
Description: (§1) To confirm these observations three colon cancer cell lines were investigated, SW480, SW620 and LoVo. Cells were grown in culture and incubated with βGBP at varying concentrations. […] Concentrations as low as 1-2 nM have been observed as effective in inducing apoptosis (FIG. 6). It is possible that in some circumstances even lower concentrations of βGBP may be effective.
(§2) Cell culture: SW480, SW620 and LoVo colon cancer cells were grown in Leibowitz L-15 medium with 10% fetal bovine serum in sealed flasks at 37° C. Hu-r-βGBP was added 3 hrs after seeding cells at a concentration of 1 nM or 2 nM. Control cells were grown without βGBP.
(§3) Growth rates: Cell numbers were measured over a time course of 5 days. Cell numbers were assessed at 0, 1, 2, 3, 4, and 5 days for each cell type incubated in the presence of Hu-r-βGBP. Cell numbers were assessed in triplicate by counting in a haemocytometer as discussed above in Example 1 and compared with cell numbers for control cells grown without βGBP.

[7] = test system: BT474 breast cancer cells; assay: Growth rate and apoptosis of BT474 cells treated with Hu-r-βGBP; assay type: cell-based; details: Hu-r-βGBP 15 or 30 nM added at hour 3 after seeding
Description: (§4) Cell culture: BT474 cells were cultured in DMEM/F12 medium with 10% fetal calf serum (FCS) (Invitrogen, UK) and 20 μg/ml insulin (Sigma, UK); the SKBR3 cells were grown in DMEM medium (Invitrogen UK) plus 10% FCS. Cultures were incubated at 37° C. in a humidified atmosphere of 5% CO2 in air.
(§5) 1×10^5 cells were seeded per 25 cm^2 flask, or 3×10^5 per 75 cm^2 flask. Sufficient numbers of flasks were seeded in parallel to allow for individual flasks to be consumed in the process of monitoring cell numbers (i.e. growth rates), apoptosis, PI3K activity, akt mRNA levels, Akt protein levels and phosphorylated Akt (P-Akt) protein levels as discussed below. Unless otherwise indicated results correspond to one flask of cells.
(§6) Growth rates: Cells were removed from the flasks by trypsinisation and counted in a haemocytometer to assess cell numbers at time points of 1, 2, 3, 4, and 5 days for BT474 cells, SKBR3 cells, MCF10A^V12Ras cells and MCF10A^CTx cells. MCF10A cells were monitored at 1, 2, 3, and 4 days. Cell numbers were determined in triplicate. […]
(§7) Cytofluorimetry: Apoptosis was monitored using four criteria as outlined below. […]
(§8) Redistribution of plasma membrane phosphatidylserine was assessed using Annexin V-FITC (Pharmingen, San Diego, Calif.). […]
(§9) Caspase 3 activity was measured by cleavage of non fluorescent PhiPhiLux to a fluorescent product (OncoImmunin, Mass.). […]

[8] = test system: ST4 (Human malignant T cell leukaemia) cells; assay: ST4 tumour growth in SCID mice, subcutaneous βGBP; assay type: in vivo; details: SCID mice injected s.c. with 5×10^6 ST4 cells; Hu-r-βGBP s.c. day 1 to day 16
Description: 5×10^6 ST4 (Human malignant T cell leukaemia) cells were injected subcutaneously at day 0. Hu-r-βGBP was administered from day 1 to day 16 by subcutaneous injection.
Female SCID mice were housed under standard conditions. Mice were divided into four groups of four. At age 6 weeks 5×10^6 ST4 (Human malignant T cell leukaemia) cells were injected subcutaneously (day 0).
Hu-r-βGBP was obtained as described in Example 1.
βGBP was administered from day 1 to day 16 by individual daily subcutaneous injection. Each group of mice received a different dosage of βGBP. 0 ng/mouse (control), 20 ng/mouse, 200 ng/mouse or 400 ng/mouse
Tumour size was assessed at day 42 or day 90 by calliper measurement.

[9] = test system: LoVo colon cancer cells; assay: Growth rate of LoVo colon cancer cells with Hu-r-βGBP; assay type: cell-based
Description: as §1, §2, §3

[10] = test system: SKBR3 breast cancer cells; assay: Growth rate and apoptosis of SKBR3 cells treated with Hu-r-βGBP; assay type: cell-based; details: Hu-r-βGBP 15 or 30 nM added at hour 3 after seeding
Description: as §4, §5, §6, §7, §8, §9

[11] = test system: MCF10A^V12Ras cells; assay: Growth rate and Annexin V apoptosis of MCF10A^V12Ras cells; assay type: cell-based; details: Hu-r-βGBP 15 or 30 nM added at hour 3
[12] = test system: SW620 colon cancer cells; assay: Growth rate of SW620 colon cancer cells with Hu-r-βGBP; assay type: cell-based
Description: as §1, §2, §3

[13] = test system: MCF-7^CTx cells; assay type: cell-based
[14] = test system: breast cancer, ovarian cancer, oral cancer, prostate cancer and leukaemia cells; assay: Screen of pro-apoptotic responses to βGBP in a range of cancer types; assay type: cell-based
Description: As described above βGBP is known to inhibit growth and/or promote apoptosis in cells from a range of cancer types.
In breast cancer, ovarian cancer, oral cancer, prostate cancer and leukaemia cells tested for pro-apoptotic responses to βGBP, the effective dose in cell culture was 15-30 nM.

[15] = test system: Akt; assay: Western blot of phosphorylated (Ser473) Akt and total Akt protein; assay type: cell-based; details: 30 nM Hu-r-βGBP
Description: Western blot analysis: Cells were lysed in 50 mM Tris pH7.4. 150 mM NaCl, 1% TritonX-100, 1 mMPMSF, 2.5 μg/ml leupeptin, 1% aprotinin, 10 mM sodium fluoride, 1 mM sodium vanadate (Sigma, UK). 50 μg of protein were loaded onto 12% polyacrylamide gels. Phosphorylated Akt was detected using 1:1000 anti-phospho-Akt (Ser473) antibody (Cell Signalling Technology, Boston, Mass.) and total Akt1/2 protein was probed with 1:1000 anti-Akt1/2 (H136) (Santa Cruz, Santa Cruz, Calif.). Secondary antibodies conjugated to horseradish peroxidase (HRP) (GE Healthcare, UK) were used at 1:1000 dilution and visualised by enhanced chemiluminescence (GE Healthcare, UK). Actin (Sigma, UK) was used as a loading control.

[16] = test system: class IA PI3K; assay: PI3 kinase assay: immunoprecipitated enzyme from treated cells, PIP3 by competitive ELISA; assay type: cell-based; details: for PI3K activity: 30 nM Hu-r-βGBP
[17] = test system: MCF10A^CTx cells; assay type: cell-based
[18] = MCF10A, MCF10A^V12Ras and MCF10A^CTx cells

Substance: GAL-1: homodimers formed from βGBP, a complex with lectin-like characteristics
- threshold concentration for apoptotic activity [1]: 4 µg/mL

Substance: cholera toxin [reference compound]
- akt gene expression [2]: accentuated akt gene expression
- akt mRNA levels [2]: more markedly expressed
- active ERK levels [3]: raised active ERK levels
- cell proliferation [4]: accelerated cell proliferation
- cell proliferation [5]: boosted

Substance: βGBP: Human recombinant β-galactoside binding protein expressed in E. coli; negative cell cycle regulator, anti-proliferative cytokine
- concentration effective in inducing apoptosis ([6]; SW480 cells, Hu-r-βGBP added 3 hrs after seeding, 5 days): 1 to 2 nM
- effective concentration relative to other cancer cell lines (times lower) ([6]; SW480 colon cancer cells versus other cancer cell lines): 15 to 30 times
- akt mRNA level ([2]; BT474 and SKBR3 cells, within one day from addition): virtually undetectable
- akt mRNA level [2, 18]: virtual absence of akt mRNA
- akt gene expression ([2]; MCF-7^CTx cells, 20 nM Hu-r-βGBP): negated
- effect on cell replication and cell death [7]: virtually no effect on cell replication until, after 2-3 generation cycles, abrupt cell death was triggered
- appearance of tumours [8]: totally prevent the appearance of tumours
- concentration effective in inducing apoptosis ([9]; LoVo cells, Hu-r-βGBP added 3 hrs after seeding, 5 days): 1 to 2 nM
- effective concentration relative to other cancer cell lines (times lower) ([9]; LoVo colon cancer cells versus other cancer cell lines): 15 to 30 times
- effect on cell replication and cell death [10]: virtually no effect on cell replication until, after 2-3 generation cycles, abrupt cell death was triggered
- response of cell proliferation to βGBP [11]: abrupt cell death after 2-3 cell replication cycles
- concentration effective in inducing apoptosis ([12]; SW620 cells, Hu-r-βGBP added 3 hrs after seeding, 5 days): 1 to 2 nM
- effective concentration relative to other cancer cell lines (times lower) ([12]; SW620 colon cancer cells versus other cancer cell lines): 15 to 30 times
- cell death in response to βGBP [13]: succumbed to total death ahead of the naive counterparts
- ERK phosphorylation [3]: no changes in ERK phosphorylation
- effective dose in cell culture for pro-apoptotic responses [14]: 15 to 30 nM
- phosphorylated Akt and Akt protein ([15]; BT474 and SKBR3 cells, preceded the apoptotic process): loss of phosphorylated Akt, and loss of Akt protein
- Akt function (phosphorylated Akt and total Akt protein) [15, 18]: loss of Akt function
- PI3K activity ([16]; BT474 and SKBR3 cells, already present at hour six, maintained throughout observation): downregulation of PI3K activity
- PI3K activity ([16]; MCF10A, MCF10A^V12Ras and MCF10A^CTx cells, delay from 6 to 24 hours with V12 Ras): brought down and maintained PI3K activity below basal levels
- decrease of PI3K activity below basal levels at which akt gene expression was negated ([16]; MCF-7^CTx cells, 20 nM Hu-r-βGBP, 10 nM wortmannin or 20 nM LY294002 added at hour 3 from seeding): ~35%
- response of cell proliferation to βGBP [17]: abrupt cell death after 2-3 cell replication cycles
- effect on cell growth ([4]; naïve MCF-7 cells, 20 nM Hu-r-βGBP added at hour 3): growth inhibitory effect
- response of cell proliferation to βGBP ([5]; naïve MCF10A cells, Hu-r-βGBP 15 or 30 nM added at hour 3): minor effect
- apoptosis after inhibition of PI3K activity and loss of akt gene function ([5]; naïve normal-like MCF10A cells, 30 nM Hu-r-βGBP, Annexin V at day three): did not lead to apoptosis
